pKi: −log10 of the molar value.
Target: c-MET (Homo sapiens, UniProt P08581)
Experiment: Ki determination for the inhibition of c-MET (standard radiometric 33P-ATP kinase assay, polyE4Y substrate)
Type: biochemical
Conditions: 1.0 nM c-Met, 35 μM ATP, 0.5 mg/mL polyE4Y, 20 min; competitive tight-binding fit
In short: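 Radiometric assay of 33P transfer from 33P-ATP (35 μM) to polyE4Y (0.5 mg/mL) by 1.0 nM c-Met in 100 mM HEPES pH 7.5, 10 mM MgCl2, 25 mM NaCl, 0.01% BSA, 1 mM DTT. TCA-quenched after 20 min, filter-captured, scintillation-counted; Ki fitted to a competitive tight-binding model.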

c-MET, sequence (P08581 25-1390): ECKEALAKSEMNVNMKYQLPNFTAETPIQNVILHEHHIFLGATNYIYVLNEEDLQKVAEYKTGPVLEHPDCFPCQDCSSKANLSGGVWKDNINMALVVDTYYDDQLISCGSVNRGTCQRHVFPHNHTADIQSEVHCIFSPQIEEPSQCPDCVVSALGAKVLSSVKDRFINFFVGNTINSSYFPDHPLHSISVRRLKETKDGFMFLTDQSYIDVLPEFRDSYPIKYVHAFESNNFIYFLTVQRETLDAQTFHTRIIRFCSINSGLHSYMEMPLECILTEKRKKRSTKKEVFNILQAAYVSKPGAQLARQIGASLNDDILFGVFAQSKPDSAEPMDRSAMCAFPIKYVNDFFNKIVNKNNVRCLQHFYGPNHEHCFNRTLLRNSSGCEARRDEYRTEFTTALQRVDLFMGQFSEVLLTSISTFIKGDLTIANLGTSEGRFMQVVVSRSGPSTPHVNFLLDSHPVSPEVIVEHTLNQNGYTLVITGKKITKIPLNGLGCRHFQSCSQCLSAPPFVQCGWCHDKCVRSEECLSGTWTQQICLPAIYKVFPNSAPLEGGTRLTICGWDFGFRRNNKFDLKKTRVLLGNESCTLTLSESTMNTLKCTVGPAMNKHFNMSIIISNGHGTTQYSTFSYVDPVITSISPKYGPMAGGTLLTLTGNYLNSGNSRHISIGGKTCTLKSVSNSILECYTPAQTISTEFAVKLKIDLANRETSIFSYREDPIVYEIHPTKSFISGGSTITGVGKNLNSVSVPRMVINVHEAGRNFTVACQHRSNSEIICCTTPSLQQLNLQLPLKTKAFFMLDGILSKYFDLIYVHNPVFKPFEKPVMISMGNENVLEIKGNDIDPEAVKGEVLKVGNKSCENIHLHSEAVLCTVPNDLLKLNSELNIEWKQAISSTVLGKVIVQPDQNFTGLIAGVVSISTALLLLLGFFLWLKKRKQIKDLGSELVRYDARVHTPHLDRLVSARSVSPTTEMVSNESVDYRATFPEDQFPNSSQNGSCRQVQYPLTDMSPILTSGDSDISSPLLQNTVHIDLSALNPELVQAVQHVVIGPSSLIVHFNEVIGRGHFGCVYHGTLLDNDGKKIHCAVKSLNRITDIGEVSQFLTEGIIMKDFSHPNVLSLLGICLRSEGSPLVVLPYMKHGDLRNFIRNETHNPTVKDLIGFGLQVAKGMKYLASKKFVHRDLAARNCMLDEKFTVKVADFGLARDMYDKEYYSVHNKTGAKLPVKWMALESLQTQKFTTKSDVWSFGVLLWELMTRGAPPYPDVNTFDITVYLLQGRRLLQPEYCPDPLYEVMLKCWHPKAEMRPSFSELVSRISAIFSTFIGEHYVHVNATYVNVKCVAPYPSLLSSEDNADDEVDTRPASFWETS

| SMILES | pKi |
| --- | --- |
| Cc1nnc(-c2cc(-c3ccc(CN(C)C)cc3)cnc2N)n1-c1cccc(F)c1Cl [I-A-389] | 6.00 to 7.00 |
| Cc1nc(-c2cc(-c3cccnc3)cnc2N)c(-c2cccc(Cl)c2Cl)o1 [I-C-6] | ≥ 7.00 |
| Cc1nnc(-c2cc(-c3cnn(C4CCNCC4)c3)cnc2N)n1-c1cccc(F)c1Cl [I-A-390] | 6.00 to 7.00 |
| Nc1ccc(-c2cnc(N)c(-c3nnnn3-c3cccc(F)c3F)c2)cc1N [I-A-298] | ≥ 7.00 |
| Nc1ncc(-c2ccc(CN3CCC(CO)CC3)cc2)cc1-c1nnnn1-c1cccc(Cl)c1Cl [I-A-96] | ≥ 7.00 |
| COc1cc2nc(N)[nH]c2cc1-c1cnc(N)c(-c2nnnn2-c2cccc(F)c2F)n1 [I-A-54] | ≥ 7.00 |
| Nc1ncc(-c2ccn(C3CCNCC3)c2)cc1-c1nnnn1-c1cccc(F)c1F [I-A-464] | ≥ 7.00 |
| Nc1ncc(-c2ccc(CN3CCCC3)cc2)cc1-n1nnnc1-c1cccc(F)c1F [I-E-4] | 6.00 to 7.00 |
| Nc1ccc(-c2cnc(N)c(-c3nnnn3-c3cccc(Cl)c3Cl)c2)cc1 [I-A-86] | ≥ 7.00 |
| NCN1CCN(Cc2ccc(-c3cnc(N)c(-c4nnnn4-c4cccc(Cl)c4Cl)c3)cc2)CC1 [I-A-108] | ≥ 7.00 |
| Nc1ncc(-c2ccn[nH]2)cc1-c1nnnn1-c1cccc(F)c1F [I-A-248] | 6.00 to 7.00 |
| Nc1ncc(-c2cnn(C3CCN(CCF)CC3)c2)cc1-c1nnnn1-c1cccc(F)c1F [I-A-452] | ≥ 7.00 |
| CN(C)Cc1ccc(-c2cnc(N)c(-c3nnnn3-c3c(F)ccc(Cl)c3F)c2)cc1 [I-A-377] | ≥ 7.00 |
| COC(=O)C(C)NC(=O)Nc1ccc(-c2cnc(N)c(-c3nnnn3-c3cccc(F)c3F)c2)cc1 (stereo not shown) [I-A-331] | ≥ 7.00 |
| Nc1ncc(-c2cnn(C3CCCNCC3)c2)nc1-c1nnnn1-c1cccc(F)c1F (stereo not shown) [I-A-656] | ≥ 7.00 |
| CN(C)Cc1ccc(-c2cnc(N)c(-c3nnnn3-c3cccc(F)c3Cl)c2)cc1 [I-A-387] | 6.00 to 7.00 |
| Nc1ncc(-c2cccnc2)cc1-c1nncn1-c1cccc(F)c1F [I-A-39] | 6.00 to 7.00 |
| CCN1CCC[C@@H](n2cc(-c3cnc(N)c(-c4nnnn4-c4cccc(Cl)c4Cl)c3)cn2)C1 [I-A-499] | ≥ 7.00 |
| Nc1ncc(-c2ccc(N3CCCC3)nc2)nc1-c1nncn1-c1cccc(F)c1F [I-A-4] | 6.00 to 7.00 |
| Nc1ncc(-c2ccc(CN3CCOCC3)cc2)nc1-c1nnc(O)n1-c1cccc(F)c1F [I-A-16] | 6.00 to 7.00 |
| COc1ccc(-c2cnc(N)c(-c3nncn3-c3cccc(Cl)c3Cl)c2)cc1OC [I-A-77] | 6.00 to 7.00 |

| SMILES | pKi |
| --- | --- |
| CCNC(=O)Nc1ccc(-c2cnc(N)c(-c3nnnn3-c3cccc(F)c3F)c2)cc1 [I-A-281] | ≥ 7.00 |
| Nc1ncc(-c2ccc(N3CC(=O)NC3=O)cc2)cc1-c1nnnn1-c1cccc(F)c1F [I-A-256] | ≥ 7.00 |
| Nc1ncc(-c2cccnc2)cc1-c1nc2cnccc2n1-c1cccc(F)c1F [I-D-1] | ≥ 7.00 |
| Nc1ncc(-c2cnn([C@@H]3CCOC3)c2)cc1-c1nnnn1-c1cccc(Cl)c1F [I-A-420] | ≥ 7.00 |
| CN1CCN(c2ccc(-c3cnc(N)c(-c4nncn4-c4cccc(F)c4F)c3)cc2)CC1 [I-A-41] | 6.00 to 7.00 |
| Nc1ncc(-c2cccc(N3CCNCC3)c2)cc1-c1nnnn1-c1cccc(F)c1F [I-A-414] | ≥ 7.00 |
| Nc1ncc(-c2cc3c(s2)CNCC3)cc1-c1nnnn1-c1cccc(F)c1F [I-A-492, 3-(1-(2,3-Difluorophenyl)-1H-tetrazol-5-yl)-5-(4,5,6,7-tetrahydrothieno[2,3-c]pyridin-2-yl)pyridin-2-amine] | ≥ 7.00 |
| Nc1ncc(-c2ccc(N3CC(CO)OC3=O)cc2)cc1-c1nnnn1-c1cccc(F)c1F (stereo not shown) [I-A-372] | ≥ 7.00 |
| Nc1ncc(-c2cccc(NC(=O)CN3CCCC3)c2)cc1-c1nnnn1-c1cccc(F)c1F [I-A-259] | ≥ 7.00 |
| CC(=O)Nc1ccc(-c2cnc(N)c(-c3nnnn3-c3cccc(Cl)c3C)c2)cc1 [I-A-575] | 6.00 to 7.00 |
| Nc1ncc(-c2cccnc2)cc1-c1nnnn1-c1c(F)ccc(F)c1Cl [I-A-618] | 6.00 to 7.00 |
| Nc1ncc(-c2cnn(CC(=O)N3CCCC3)c2)cc1-c1nnnn1-c1cccc(F)c1F [I-A-364] | 6.00 to 7.00 |
| CC(=O)Nc1cccc(-c2cnc(N)c(-c3nnnn3-c3cc(F)ccc3F)c2)c1 [I-A-567] | 6.00 to 7.00 |
| COc1c(F)cccc1-n1nnnc1-c1cc(-c2ccc(NC(C)=O)cc2)cnc1N [I-A-588] | 6.00 to 7.00 |
| CCN(CCO)Cc1ccc(-c2cnc(N)c(-c3nnnn3-c3cccc(F)c3F)c2)cc1 [I-A-146] | ≥ 7.00 |
| CC(C)N1CCC(n2cc(-c3cnc(N)c(-c4nnnn4-c4cccc(F)c4F)c3)cn2)CC1 [I-A-448] | ≥ 7.00 |
| CC(C)c1ccc(-c2cnc(N)c(-c3nnnn3-c3cccc(F)c3F)c2)cc1 [I-A-237] | 6.00 to 7.00 |
| Nc1ncc(-c2ccc(C3NC(=O)NC3=O)cc2)cc1-c1nnnn1-c1cccc(F)c1F (stereo not shown) [I-A-257] | ≥ 7.00 |
| CC(=O)Nc1ccc(-c2cnc(N)c(-c3nnnn3-c3cccc(F)c3F)c2)cc1F [I-A-127] | ≥ 7.00 |
| Cc1c(F)cccc1-n1nnnc1-c1cc(-c2ccc(CN(C)C)cc2)cnc1N [I-A-577] | 6.00 to 7.00 |
| CC(=O)Nc1cccc(-c2cnc(N)c(-c3nnnn3-c3c(F)cccc3F)c2)c1 [I-A-610] | 6.00 to 7.00 |

| SMILES | pKi |
| --- | --- |
| Nc1ncc(-c2cnn(C3CCN(CC4CC4)CC3)c2)cc1-c1nnnn1-c1cccc(F)c1F [I-A-449] | ≥ 7.00 |
| CN(C)Cc1ccc(-c2cnc(N)c(-c3nnnn3-c3c(F)cccc3Cl)c2)cc1 [I-A-623] | ≥ 7.00 |
| CC(=O)Nc1ccc(-c2cnc(N)c(-c3nnnn3-c3cc(F)ccc3F)c2)cc1 [I-A-581] | 6.00 to 7.00 |
| CN(C)Cc1ccc(-c2cnc(N)c(-c3nnnn3-c3c(F)cccc3F)c2)cc1 [I-A-619] | ≥ 7.00 |
| Nc1ncc(-c2ccco2)cc1-c1nnnn1-c1cccc(F)c1F [I-A-488] | 6.00 to 7.00 |
| Nc1ncc(-c2cscn2)nc1-c1nnnn1-c1ccccc1F [I-A-541] | 6.00 to 7.00 |
| Nc1ncc(-c2cnn(C3CCN(CCO)CC3)c2)cc1-c1nnnn1-c1cccc(Cl)c1F [I-A-469] | ≥ 7.00 |
| CN(C)CCCNC(=O)c1ccc(-c2cnc(N)c(-c3nnnn3-c3cccc(Cl)c3Cl)c2)cc1 [I-A-125] | ≥ 7.00 |
| Nc1ncc(-c2cnn([C@@H]3CCOC3)c2)cc1-c1nnnn1-c1cccc(F)c1F [I-A-419] | ≥ 7.00 |
| CCOc1cccc(-c2cnc(N)c(-c3nncn3-c3cccc(F)c3F)n2)c1 [I-A-31] | 6.00 to 7.00 |
| Nc1ncc(-c2cnn(C3CCN(CCF)CC3)c2)cc1-c1nncn1-c1cccc(Cl)c1F [I-A-459] | ≥ 7.00 |
| CC(=O)Nc1ccc(-c2cnc(N)c(-c3nnnn3-c3cccc(F)c3C)c2)cc1 [I-A-574] | 6.00 to 7.00 |
| Nc1ncc(-c2cnn(C3CCN(CC4CC4)CC3)c2)cc1-c1nnnn1-c1cccc(Cl)c1F [I-A-472] | ≥ 7.00 |
| CN1CCC(n2cc(-c3cnc(N)c(-c4nnnn4-c4cccc(Cl)c4F)c3)cn2)CC1 [I-A-436] | ≥ 7.00 |
| Nc1ncc(-c2cnn(C(c3ccccc3)(c3ccccc3)c3ccccc3)c2)cc1-c1nnnn1-c1cccc(F)c1F [I-A-365] | 6.00 to 7.00 |
| Nc1ncc(-c2cn(C3CCOCC3)nn2)cc1-c1nnnn1-c1cccc(F)c1F [I-A-485] | ≥ 7.00 |
| Nc1ncc(C2=CCN(C(=O)C3CCOC3)CC2)cc1-c1nnnn1-c1cccc(F)c1F (stereo not shown) [I-A-422] | ≥ 7.00 |
| CC(=O)Nc1cccc(-c2cnc(N)c(-c3nncn3-c3cccc(Cl)c3Cl)c2)c1 [I-A-73] | 6.00 to 7.00 |
| Nc1ncc(-c2cnn(C3CCNCC3)c2)cc1-c1nnnn1-c1c(F)cccc1F [I-A-628] | ≥ 7.00 |

From patent US8232406B2, “c-MET protein kinase inhibitors” (Vertex Pharmaceuticals Incorporated, priority 2006, dated 2012)
